Measurements: patent publication US20260345771A1, “THERAPY COMPRISING ANTI-CD19 ANTIBODY AND EZH2 MODULATORS” (Incyte Corporation, priority 2022, published 2026)
Each block holds one molecule with its values, some of them ahead of it.

Key:
SU-DHL-6 cells = experiment: CellTiter-Glo (CTG) viability assay, SU-DHL-6; format: cell-based; conditions: Homo sapiens, 168 h; SU-DHL-6, 7 days, compound alone
Protocol: (§1) A panel of 6 lymphoma cell lines was included in the analysis (5 DLBCL and 1 Burkitt lymphoma). All cell lines were cultured in RPMI 1640 medium (Gibco) supplemented with 10%-20% FCS (Sigma) at 37 °C in 5% CO2.
(§2) To analyze direct cytotoxic and anti-proliferative effects on target cells, cell viability assays were performed using the CellTiter-Glo Kit (Promega), a luminescence assay for determination of viable cell number based on quantification of adenosine triphosphate (ATP) levels. […] Cell densities were adjusted at days 3 and 7 during the assay to avoid overgrowth. The assay was performed in clear 48- and 96-F-well bottom plates in a final volume of 1 mL or 200 μL, respectively, in a cell incubator at 37 °C and 5% CO2. In each experiment, all test conditions were performed in triplicates.
(§3) Cell viability was analyzed according to the manufacturer's protocol using the Tecan Infinite F500 plate reader. The relative viable cell count was calculated from the measured relative luminescence units (RLU) with the following equation: […]
(§4) For graphical illustration and IC50 determination, the mean values of triplicates (viability assay) or duplicates (CD19 expression) of the individual experiments were imported into GraphPad Prism software (version 8). […] IC50 curves were determined applying a non-linear regression curve fit model (sigmoidal dose response, variable slope).

SU-DHL-4 cells = experiment: CellTiter-Glo (CTG) viability assay, SU-DHL-4; format: cell-based; conditions: Homo sapiens, SU-DHL-4, 168 h
Protocol: as §1, §2, §3, §4

WSU-DLCL2 tumor = experiment: Tumor growth in WSU-DLCL2 tumor bearing CB17-SCID mice; format: in vivo
Protocol: The in vivo study was carried out in WSU-DLCL2 tumor bearing CB17-SCID mice. 4×10^6 WSU-DLCL2 cells (DLBCL cell line) per animal were implanted with matrigel (1:1) s.c. into the left flank of 6-8 weeks old female CB17-SCID mice. On study day 17, when a mean tumor volume of approximately 100 mm^3 was reached, animals were randomly allocated into treatment groups with 8 mice per group and treatment was started. Treatment was applied every day p.o. at 35 mg/kg or 50 mg/kg for Compound 1 (application volume: 10 mL/kg; formulation buffer: 20% propylene glycol, 10% Solutol HS15, 70% phthalate buffer) and biweekly i.v. at 3 mg/kg or 10 mg/kg for tafasitamab (application volume: 5 mL/kg; formulation buffer: PBS). Tumor volume and body weight were measured twice weekly. Mice were sacrificed when reaching a tumor volume >1500 mm^3 or latest at study end on day 69 after tumor cell implantation. Mean tumor growth curves were calculated using GraphPad Prism software (version 8.4.3).
The proof of concept in vivo study was performed in WSU-DLCL2 tumor bearing CB17-SCID mice.

- IC50 (SU-DHL-6 cells): 3.8 nM
- IC50 (SU-DHL-4 cells): 17.1 nM
Molecule: COC1CN([C@H]2CC[C@H]([C@@]3(C)Oc4c(Cl)cc(C(=O)NCc5c(SC)cc(C)[nH]c5=O)c(C)c4O3)CC2)C1 [Compound 1]

B1: tafasitamab: humanized monoclonal antibody that targets the antigen CD19, engineered in the IgG Fc-region to enhance ADCC (antibody, chains of the INN, looked up)
heavy: EVQLVESGGGLVKPGGSLKLSCAASGYTFTSYVMHWVRQAPGKGLEWIGYINPYNDGTKYNEKFQGRVTISSDKSISTAYMELSSLRSEDTAMYYCARGTYYYGTRVFDYWGQGTLVTVSSASTKGPSVFPLAPSSKSTSGGTAALGCLVKDYFPEPVTVSWNSGALTSGVHTFPAVLQSSGLYSLSSVVTVPSSSLGTQTYICNVNHKPSNTKVDKKVEPKSCDKTHTCPPCPAPELLGGPDVFLFPPKPKDTLMISRTPEVTCVVVDVSHEDPEVQFNWYVDGVEVHNAKTKPREEQFNSTFRVVSVLTVVHQDWLNGKEYKCKVSNKALPAPEEKTISKTKGQPREPQVYTLPPSREEMTKNQVSLTCLVKGFYPSDIAVEWESNGQPENNYKTTPPMLDSDGSFFLYSKLTVDKSRWQQGNVFSCSVMHEALHNHYTQKSLSLSPG
light: DIVMTQSPATLSLSPGERATLSCRSSKSLQNVNGNTYLYWFQQKPGQSPQLLIYRMSNLNSGVPDRFSGSGSGTEFTLTISSLEPEDFAVYYCMQHLEYPITFGAGTKLEIKRTVAAPSVFIFPPSDEQLKSGTASVVCLLNNFYPREAKVQWKVDNALQSGNSQESVTEQDSKDSTYSLSSTLTLSKADYEKHKVYACEVTHQGLSSPVTKSFNRGEC
- tumor growth inhibition (WSU-DLCL2 tumor; monotherapy 3 mg/kg i.v. BIW): did not reveal any tumor growth inhibition
- tumor growth inhibition (WSU-DLCL2 tumor; monotherapy 10 mg/kg i.v. BIW): did not reveal any tumor growth inhibition
